“Also recorded” adds a separate entry of the source. Read-outs that look alike come from different tables or passages of the source.
Key:
[1] = system: patients with a history of aspirin exacerbated respiratory disease (AERD); assay: Multicenter, double-blind, randomized, placebo-controlled trial of oral ifetroban with aspirin challenge/desensitization (AERD Phase 2a); format: in vivo, human; settings: for Incidence of an AIR by Aspirin Dose: AIR population n = 10; for NIFR ≥25% decrease / NIFR ≥25% increase / TNSS ≥25% decrease / TNSS ≥25% increase: ifetroban 200 mg/day oral; for Rescue Medications Mean (SD): to resolve an AIR
Description: Example IV is a multicenter, double-blind, randomized, placebo-controlled trial to determine the safety of oral ifetroban in patients with a history of aspirin exacerbated respiratory disease (AERD).
The eligible subjects were randomized (3:1 active to placebo) in this 7-day study which consisted of a screening, treatment and follow-up period. Any subject receiving at least a partial dose of IMP were not replaced and included in the study analysis. Of 19 subjects enrolled and randomized to study treatment, 14 (74%) were randomized to the ifetroban group and 5 (26%) to the placebo group. Of those 14 randomized to ifetroban, 12 (86%) subjects were treated and 100% of those treated completed treatment. Of 5 subjects randomized to placebo, 4 (80%) started treatment and 100% completed treatment. All treated subjects were analyzed for safety and efficacy variables.
All individuals with AERD will experience a clinical reaction to aspirin, most often at a dose of 81 mg or below. By utilizing a modified Scripps Institute protocol (Hope, Woessner, Simon, & Stevenson, 2009), limiting the study to individuals with stable asthma and no history of life-threatening reaction to COX inhibitors and administering the cysteinyl leukotriene receptor 1 (Cys-LT1) antagonist montelukast to all individuals undergoing the challenge/desensitization, the procedure could safely be done in an ambulatory/outpatient clinic setting. […] Thus, montelukast substantially increases the safety of aspirin challenge/desensitization and it is the standard of care to use montelukast as a pre-treatment for subjects with AERD undergoing a planned aspirin challenge/desensitization.
The primary objective of this study was to determine the safety of oral ifetroban compared to placebo as measured by a ≥20% decrease in Forced Expiratory Volume in 1 second (FEV1) compared to baseline following a dose of Investigational Medicinal Product (IMP) (Study Day 1) or following a dose of IMP but prior to initiation of the aspirin challenge. Secondary objectives were: (i) to determine the safety of oral ifetroban compared to placebo as measured by peak Nasal Inspiratory Flow Rate (NIFR) compared to baseline following a dose of IMP (Study Day 1) or following a dose of IMP but prior to initiation of the aspirin challenge; (ii) to determine the safety of oral ifetroban compared to placebo as measured by the change in Total Nasal Symptom Score (TNSS) compared to baseline following a dose of IMP (Study Day 1) or following a dose of IMP but prior to initiation of the aspirin challenge; (iii) to determine the safety and tolerability of oral ifetroban compared to placebo as measured by treatment-emergent adverse events; (iv) to determine the efficacy of oral ifetroban compared to placebo in decreasing the respiratory reaction to oral aspirin as measured by the change in FEV1 compared to baseline during the aspirin challenge; (v) to determine the efficacy of oral ifetroban compared to placebo in decreasing the respiratory reaction to oral aspirin as measured by the change in NIFR compared to baseline during the aspirin challenge; (vi) to determine the efficacy of oral ifetroban compared to placebo in decreasing the respiratory reaction to oral aspirin as measured by the change in TNSS compared to baseline during the aspirin challenge; (vii) to determine the efficacy of oral ifetroban compared to placebo in decreasing the respiratory reaction to oral aspirin as measured by the amount of rescue medication during the aspirin challenge; (viii) to determine the efficacy of oral ifetroban compared to placebo in decreasing respiratory sensitivity to COX-1 inhibition as measured by the aspirin desensitization dose level; and (ix) to determine the efficacy of oral ifetroban compared to placebo as measured by the number of asthmatic reactions during the Treatment Period. […]

[2] = system: guinea pig trachea; settings: in vitro; cited from earlier work
[3] = system: TP receptor-induced bronchospasm; settings: rats; cited from earlier work
[4] = system: TP receptor-induced bronchospasm; settings: guinea pigs; cited from earlier work
[5] = system: Df-treated ptges−/− mice; settings: cited from earlier work; for Reaction to aspirin (peak change in RL in response to Lys-ASA challenge): two doses of antagonist prior to challenge with Lys-ASA
[6] = biological target: CYP2C9 (Homo sapiens, UniProt P11712); settings: cited from earlier work
[7] = biological target: CYP3A4 (Homo sapiens, UniProt P08684); settings: cited from earlier work
[8] = Phase A, n = 12, listed as ifetroban
[9] = Phase B (aspirin challenge), n = 12
[10] = aspirin desensitization, n = 12
[11] = column headed Phase C (overall, during the study), n = 12
[12] = subjects that experienced an AIR
[13] = subjects that experienced an AIR, listed as ifetroban

CYP2C9, sequence (P11712 whole entry): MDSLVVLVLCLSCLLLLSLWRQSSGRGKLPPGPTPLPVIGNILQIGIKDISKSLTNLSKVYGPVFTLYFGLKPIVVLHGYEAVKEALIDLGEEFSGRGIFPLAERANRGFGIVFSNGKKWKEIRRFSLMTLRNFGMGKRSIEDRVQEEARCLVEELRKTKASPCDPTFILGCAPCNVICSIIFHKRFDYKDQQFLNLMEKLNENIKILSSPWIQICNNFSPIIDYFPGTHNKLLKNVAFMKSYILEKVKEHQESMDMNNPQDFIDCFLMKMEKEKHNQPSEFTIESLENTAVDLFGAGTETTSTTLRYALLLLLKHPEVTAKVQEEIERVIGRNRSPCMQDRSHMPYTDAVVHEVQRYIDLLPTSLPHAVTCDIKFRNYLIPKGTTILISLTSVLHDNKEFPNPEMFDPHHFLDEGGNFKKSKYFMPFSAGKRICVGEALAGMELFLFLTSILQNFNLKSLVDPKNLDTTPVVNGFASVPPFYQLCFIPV
CYP3A4, sequence (P08684 whole entry): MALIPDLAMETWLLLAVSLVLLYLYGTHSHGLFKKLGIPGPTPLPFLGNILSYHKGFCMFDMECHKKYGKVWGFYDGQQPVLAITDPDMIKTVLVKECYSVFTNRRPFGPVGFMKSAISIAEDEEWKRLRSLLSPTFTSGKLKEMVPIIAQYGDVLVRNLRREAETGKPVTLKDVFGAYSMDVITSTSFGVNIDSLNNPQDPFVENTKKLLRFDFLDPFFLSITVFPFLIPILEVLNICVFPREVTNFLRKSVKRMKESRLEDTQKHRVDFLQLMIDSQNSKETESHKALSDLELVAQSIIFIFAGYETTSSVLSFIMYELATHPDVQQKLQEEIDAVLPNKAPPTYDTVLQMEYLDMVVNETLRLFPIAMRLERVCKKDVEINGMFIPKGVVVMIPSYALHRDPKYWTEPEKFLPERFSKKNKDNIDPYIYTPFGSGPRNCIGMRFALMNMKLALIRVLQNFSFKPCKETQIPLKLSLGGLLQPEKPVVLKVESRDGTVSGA

CCCCCNC(=O)c1coc([C@H]2[C@@H](Cc3ccccc3CCC(=O)O)[C@@H]3CC[C@H]2O3)n1 [Ifetroban, [1S-(1α,2α,3α,4α)]-2-[[3-[4-[(Pentylamino)carbonyl]-2-oxazolyl]-7-oxabicyclo[2.2.1]hept-2-yl]methyl]-benzenepropanoic acid]
Difference in mean rescue medications, placebo versus ifetroban ([1]; 7.33 (placebo) versus 2.90 (ifetroban) to resolve an AIR): 2.5 fold | Severity of an AIR: All Symptoms (total number) ([1]; AIR subjects n = 10): 43 | Incidence of an AIR by Aspirin Dose ([1]; Aspirin Dose 30 mg): 0 No. of Subjects (%) | Incidence of an AIR by Aspirin Dose ([1]; Aspirin Dose 60 mg): 5 (50) No. of Subjects (%) | Incidence of an AIR by Aspirin Dose ([1]; Aspirin Dose 100 mg): 5 (50) No. of Subjects (%) | Incidence of an AIR by Aspirin Dose ([1]; Aspirin Dose 150 mg): 0 No. of Subjects (%) | Incidence of an AIR by Aspirin Dose ([1]; Aspirin Dose 325 mg): 0 No. of Subjects (%) | NIFR ≥25% decrease ([1]; Phase A, n = 12): 2(17) No. of Subjects (%) | NIFR ≥25% increase ([1]; Phase A, n = 12): 3(25) No. of Subjects (%) | TNSS ≥25% decrease ([1]; Phase A, n = 12): 1(8) No. of Subjects (%) | TNSS ≥25% increase ([1]; Phase A, n = 12): 0 No. of Subjects (%) | TNSS ≥25% decrease [1, 8]: 1 (8%) No. of Subjects (%) | TNSS ≥25% increase [1, 8]: No subject | NIFR ≥25% decrease [1, 9]: 4(33) No. of Subjects (%) | NIFR ≥25% increase [1, 9]: 7(58) No. of Subjects (%) | TNSS ≥25% decrease [1, 9]: 2(17) No. of Subjects (%) | TNSS ≥25% increase [1, 9]: 3(25) No. of Subjects (%) | TNSS ≥25% decrease ([1]; Phase B (aspirin challenge), n = 12, listed as ifetroban): 2 (17%) No. of Subjects (%) | Average number of symptoms per AIR compared to placebo ([1]; aspirin challenge): comparable between treatment groups | Bronchial reaction (<20% decrease in FEV1, wheezing, chest tightness) as part of the AIR compared to placebo ([1]; aspirin challenge): at a similar rate | Ocular manifestation compared to placebo ([1]; aspirin challenge): seems to trend toward the placebo arm more often than on the ifetroban arm | Upper respiratory effect (rhinorrhea, nasal obstruction, sneezing) compared to placebo ([1]; aspirin challenge): equally as common between treatment groups | Number of rescue medications compared to placebo (trend) ([1]; aspirin challenge (phase B)): apparent trend toward fewer rescue medications in favor of the ifetroban group | Total Number of Rescue Medications ([1]; aspirin challenge (phase B)): 29 | Aspirin-induced Reaction (AIR): No [1, 10]: 2 (17) No. of Subjects (%) | Aspirin-induced Reaction (AIR): Yes [1, 10]: 10 (83) No. of Subjects (%) | Proportion of subjects with worsening NIFR or TNSS compared to placebo ([1]; between treatment groups): no clear trends were observed; also recorded: no appreciable difference was observed | NIFR ≥25% decrease [1, 11]: 5(42) No. of Subjects (%) | NIFR ≥25% increase [1, 11]: 9(75) No. of Subjects (%) | TNSS ≥25% decrease [1, 11]: 2(17) No. of Subjects (%) | TNSS ≥25% increase [1, 11]: 3(25) No. of Subjects (%) | NIFR ≥25% increase ([1]; column headed Phase C (overall, during the study), n = 12, listed as ifetroban): 9 (75%) No. of Subjects (%) | ≥20% decrease in FEV1 (primary endpoint) ([1]; during IMP treatment or the aspirin desensitization process, 200 mg/day): did not cause a ≥20% decrease in FEV1 | Subjects with ≥25% decrease in peak NIFR during both phase A and phase B ([1]; during both phase A and phase B): One | Improvements to NIFR and TNSS compared to placebo ([1]; during phase A and phase B): observed trend in favor of the ifetroban group toward greater improvements | Subjects with ≥50% or 75% increase or decrease in TNSS ([1]; during the study): No one | AEs reported compared to placebo ([1]; ifetroban at 200 mg/day): no increase in AEs | Safety and tolerability ([1]; ifetroban at 200 mg/day, subjects with a history of AERD): well tolerated and safe | Symptoms of aspirin desensitization in AERD patients ([1]; ifetroban at a dose of 200 mg/day): may be diminished | Severity of an AIR: <20% decrease in FEVI (number) ([1]; n = 10): 9 | Severity of an AIR: <20% decrease in FEVI Mean ([1]; n = 10): 0.9 | Severity of an AIR: All Symptoms Median ([1]; n = 10): 4 | Severity of an AIR: All Symptoms Min, Max ([1]; n = 10): 3.7 | Severity of an AIR: Lower Respiratory (number of symptoms) ([1]; n = 10): 13 | Severity of an AIR: Lower Respiratory Mean ([1]; n = 10): 1.3 | Severity of an AIR: Ocular (number of symptoms) ([1]; n = 10): 5 | Severity of an AIR: Ocular Mean ([1]; n = 10): 0.5 | Severity of an AIR: Upper Respiratory (number of symptoms) ([1]; n = 10): 25 | Severity of an AIR: Upper Respiratory Mean ([1]; n = 10): 2.5 | Severity of an AIR: All Symptoms Mean(SD) ([1]; per AIR, n = 10): 4.3(1.34) | Asthmatic reactions reported or rescue medications used ([1]; phase A prior to aspirin initiation): No asthmatic reactions were reported or rescue medications used | Initial reactions occurring at the 60-mg aspirin dose ([1]; provoking aspirin dose 60 mg): 50% | Required Rescue Medication: No [1, 12]: 1 (10) No. of Subjects (%) | Required Rescue Medication: Yes [1, 12]: 9 (90) No. of Subjects (%) | Rescue Medications Max [1, 12]: 7 | Rescue Medications Median [1, 12]: 3 | Rescue Medications Min [1, 12]: 0 | Required Rescue Medication: No [1, 13]: 1 (10%) No. of Subjects (%) | Rescue medication outside the clinic for an asthmatic reaction ([1]; throughout the 7-day study period): no subject required rescue medication outside the clinic | Mean changes from baseline FEV1 ([1]; throughout the treatment period): below 20% | Rescue Medications Mean (SD) [1, 12]: 2.90 (2.02) | Rescue Medications Mean (SD) [1, 13]: 2.90 | Contraction of guinea pig trachea elicited by PGD2 [2]: inhibit contraction | TP receptor-induced bronchospasm [3]: both preempt and reverse | TP receptor-induced bronchospasm [4]: both preempt and reverse

CC(c1ccccc1)C(O)/C=C/C1C2CCC(O2)C1C/C=C\CCCC(=O)O (stereo not drawn) [[1S-(1α, 2α(Z), 3α(1E, 3S*, 4R*), 4α)]]-7-[3-(3-hydroxy-4-phenyl-1-pentenyl)-7-oxabicyclo[2.2.1]hept-2-yl]-5-heptenoic acid]
Rise in cys-LTs (BAL fluid) ([5]; ptges−/− mice, Lys-ASA challenge): completely blocked | Reaction to aspirin (peak change in RL in response to Lys-ASA challenge) ([5]; ptges−/− mice): completely blocked | Reaction to aspirin (peak change in RL in response to Lys-ASA challenge) ([5]; ptges−/− mice, listed as SQ29.548): attenuates aspirin sensitivity

CC(C)(O)c1ccccc1CC[C@@H](SCC1(CC(=O)O)CC1)c1cccc(/C=C/c2ccc3ccc(Cl)cc3n2)c1 [montelukast]
Inhibition of CYP2C9 [6]: does not inhibit | Inhibition of CYP3A4 [7]: does not inhibit

CC(c1cc2ccccc2s1)N(O)C(N)=O (centres unmarked) [zileuton]
Increase in airway resistance on inhalation of Lysine aspirin ([5]; Df-treated ptges−/− mice): sensitive to interference

— patent US11571412B2, “Thromboxane receptor antagonists in AERD/asthma” (Cumberland Pharmaceuticals Inc., priority 2015, dated 2023)
